Experimental data taken from ChEMBL document CHEMBL5303573, “Mapping human microbiome drug metabolism by gut bacteria and their genes” (Nature, 2019).

Assays:
[1] = The drug is tested on Bacteroides pectinophilus strain: ATCC43243 for biotransformation. The drug concentrations were measured before and after a 12-h incubation by liquid-chromatography-coupled mass spectrometry (LC–MS); settings: 2 µM
[2] = The drug is tested on Bacteroides uniformis strain: ATCC8492 for biotransformation. The drug concentrations were measured before and after a 12-h incubation by liquid-chromatography-coupled mass spectrometry (LC–MS); settings: 2 µM
[3] = The drug is tested on Bacteroides vulgatus strain: ATCC8482 for biotransformation. The drug concentrations were measured before and after a 12-h incubation by liquid-chromatography-coupled mass spectrometry (LC–MS); settings: phocaeicola vulgatus, 2 µM
[4] = The drug is tested on Odoribacter splanchnicus strain: fecal isolate for biotransformation. The drug concentrations were measured before and after a 12-h incubation by liquid-chromatography-coupled mass spectrometry (LC–MS); settings: 2 µM
[5] = The drug is tested on Parabacteroides merdae strain: ATCC43184 for biotransformation. The drug concentrations were measured before and after a 12-h incubation by liquid-chromatography-coupled mass spectrometry (LC–MS); settings: 2 µM
[6] = The drug is tested on Anaerococcus hydrogenalis strain: DSM7454 for biotransformation. The drug concentrations were measured before and after a 12-h incubation by liquid-chromatography-coupled mass spectrometry (LC–MS); settings: 2 µM
[7] = The drug is tested on Blautia luti strain: DSM14534 for biotransformation. The drug concentrations were measured before and after a 12-h incubation by liquid-chromatography-coupled mass spectrometry (LC–MS); assay type: ADME; parameters: dose 2 uM, timepoint 0 vs 12 hours; settings: 2 µM
[8] = The drug is tested on Clostridium scindens strain: ATCC35704 for biotransformation. The drug concentrations were measured before and after a 12-h incubation by liquid-chromatography-coupled mass spectrometry (LC–MS); settings: 2 µM
[9] = The drug is tested on Clostridium symbiosum strain: ATCC14940 for biotransformation. The drug concentrations were measured before and after a 12-h incubation by liquid-chromatography-coupled mass spectrometry (LC–MS); settings: 2 µM
[10] = The drug is tested on Coprococcus comes strain: ATCC27758 for biotransformation. The drug concentrations were measured before and after a 12-h incubation by liquid-chromatography-coupled mass spectrometry (LC–MS); assay type: ADME; parameters: dose 2 uM, timepoint 0 vs 12 hours; settings: 2 µM
[11] = The drug is tested on Subdoligranulum variabile strain: DSM15176 for biotransformation. The drug concentrations were measured before and after a 12-h incubation by liquid-chromatography-coupled mass spectrometry (LC–MS); settings: 2 µM
[12] = The drug is tested on Edwardsiella tarda strain: ATCC23685 for biotransformation. The drug concentrations were measured before and after a 12-h incubation by liquid-chromatography-coupled mass spectrometry (LC–MS); settings: 2 µM
[13] = bacteroides fragilis, 12 h, 2 µM
Description: The drug is tested on Bacteroides fragilis strain: NCTC 9343 for biotransformation. The drug concentrations were measured before and after a 12-h incubation by liquid-chromatography-coupled mass spectrometry (LC–MS)

[14] = bacteroides thetaiotaomicron, 12 h, 2 µM
Description: The drug is tested on Bacteroides thetaiotaomicron strain: 3731 for biotransformation. The drug concentrations were measured before and after a 12-h incubation by liquid-chromatography-coupled mass spectrometry (LC–MS)

[15] = anaerostipes sp., 12 h, 2 µM
Description: The drug is tested on Anaerostipes sp. strain: fecal isolate for biotransformation. The drug concentrations were measured before and after a 12-h incubation by liquid-chromatography-coupled mass spectrometry (LC–MS)

[16] = The drug is tested on Bacteroides ovatus strain: ATCC8483 for biotransformation. The drug concentrations were measured before and after a 12-h incubation by liquid-chromatography-coupled mass spectrometry (LC–MS); settings: 2 µM
[17] = The drug is tested on Clostridium sporogenes strain: ATCC15579 for biotransformation. The drug concentrations were measured before and after a 12-h incubation by liquid-chromatography-coupled mass spectrometry (LC–MS); settings: 2 µM
[18] = The drug is tested on Alistipes indistinctus strain: DSM22520 for biotransformation. The drug concentrations were measured before and after a 12-h incubation by liquid-chromatography-coupled mass spectrometry (LC–MS); settings: 2 µM
[19] = The drug is tested on Bacteroides fragilis strain: HMW610 for biotransformation. The drug concentrations were measured before and after a 12-h incubation by liquid-chromatography-coupled mass spectrometry (LC–MS); settings: 2 µM

Bacterial Biotransformation [1] | Bacterial Biotransformation [2] | Bacterial Biotransformation [3] | Bacterial Biotransformation [4] | Bacterial Biotransformation [5] | Bacterial Biotransformation [6] | Bacterial Biotransformation [7] | Bacterial Biotransformation [8] | Bacterial Biotransformation [9] | Bacterial Biotransformation [10] | Bacterial Biotransformation [11] | Bacterial Biotransformation [12] | Bacterial Biotransformation [13] | Bacterial Biotransformation [14] | Bacterial Biotransformation [15] | Bacterial Biotransformation [16] | Bacterial Biotransformation [17] | Bacterial Biotransformation [18] | SMILES | Bacterial Biotransformation [19]
Compound NOT metabolized | Compound NOT metabolized | Compound NOT metabolized | Compound NOT metabolized | Compound NOT metabolized | Compound NOT metabolized | Compound NOT metabolized | Compound NOT metabolized | Compound NOT metabolized | Compound NOT metabolized | Compound NOT metabolized | Compound NOT metabolized | Compound NOT metabolized | – | Compound NOT metabolized | Compound NOT metabolized | Compound NOT metabolized | – | CN(C)CCc1c[nH]c2ccc(CS(=O)(=O)N3CCCC3)cc12 [ALMOTRIPTAN] | –
Compound NOT metabolized | – | – | Compound metabolized | – | Compound NOT metabolized | Compound NOT metabolized | Compound NOT metabolized | Compound NOT metabolized | Compound NOT metabolized | Compound NOT metabolized | Compound NOT metabolized | Compound NOT metabolized | Compound NOT metabolized | Compound NOT metabolized | Compound NOT metabolized | Compound NOT metabolized | Compound NOT metabolized | O=C1CN2Cc3c(ccc(Cl)c3Cl)N=C2N1 [ANAGRELIDE] | –
Compound NOT metabolized | Compound metabolized | Compound metabolized | Compound metabolized | Compound metabolized | Compound NOT metabolized | Compound NOT metabolized | Compound NOT metabolized | Compound NOT metabolized | Compound NOT metabolized | – | Compound NOT metabolized | Compound metabolized | Compound NOT metabolized | Compound NOT metabolized | Compound metabolized | Compound metabolized | Compound NOT metabolized | CC(C)(C#N)c1cc(Cn2cncn2)cc(C(C)(C)C#N)c1 [ANASTROZOLE] | Compound NOT metabolized
– | – | Compound NOT metabolized | Compound NOT metabolized | Compound NOT metabolized | Compound NOT metabolized | Compound NOT metabolized | Compound NOT metabolized | Compound NOT metabolized | Compound NOT metabolized | – | Compound NOT metabolized | Compound NOT metabolized | Compound NOT metabolized | Compound NOT metabolized | Compound NOT metabolized | Compound NOT metabolized | Compound NOT metabolized | CC(C)NCC(O)COc1ccc(COCCOC(C)C)cc1.CC(C)NCC(O)COc1ccc(COCCOC(C)C)cc1.O=C(O)/C=C/C(=O)O (stereo not given) [BISOPROLOL FUMARATE] | Compound NOT metabolized
– | Compound metabolized | Compound metabolized | Compound metabolized | Compound NOT metabolized | Compound metabolized | Compound NOT metabolized | Compound metabolized | Compound metabolized | Compound metabolized | Compound NOT metabolized | Compound metabolized | Compound metabolized | Compound NOT metabolized | Compound NOT metabolized | Compound metabolized | Compound metabolized | – | c1ccc([C@H]2CN3CCSC3=N2)cc1 [LEVAMISOLE] | Compound metabolized

Continued, compound first:

SMILES | Bacterial Biotransformation [1] | Bacterial Biotransformation [2] | Bacterial Biotransformation [3] | Bacterial Biotransformation [4] | Bacterial Biotransformation [5] | Bacterial Biotransformation [6] | Bacterial Biotransformation [7] | Bacterial Biotransformation [8] | Bacterial Biotransformation [9] | Bacterial Biotransformation [10] | Bacterial Biotransformation [11] | Bacterial Biotransformation [12] | Bacterial Biotransformation [13] | Bacterial Biotransformation [14] | Bacterial Biotransformation [15] | Bacterial Biotransformation [16] | Bacterial Biotransformation [17] | Bacterial Biotransformation [18] | Bacterial Biotransformation [19]
CCOC(=O)[C@H](CCc1ccccc1)N[C@@H](C)C(=O)N1Cc2ccccc2C[C@H]1C(=O)O | Compound metabolized | Compound metabolized | Compound metabolized | Compound metabolized | Compound NOT metabolized | Compound NOT metabolized | Compound NOT metabolized | Compound NOT metabolized | Compound metabolized | Compound NOT metabolized | Compound metabolized | Compound NOT metabolized | Compound metabolized | Compound metabolized | Compound NOT metabolized | – | – | – | –
CN1CCC(=C2c3ccccc3CCc3cccnc32)CC1.O=C(O)/C=C\C(=O)O.O=C(O)/C=C\C(=O)O [AZATADINE MALEATE] | Compound NOT metabolized | – | – | – | Compound NOT metabolized | Compound NOT metabolized | Compound NOT metabolized | Compound NOT metabolized | Compound NOT metabolized | Compound NOT metabolized | Compound NOT metabolized | Compound NOT metabolized | Compound NOT metabolized | Compound NOT metabolized | Compound NOT metabolized | Compound NOT metabolized | Compound NOT metabolized | Compound NOT metabolized | Compound NOT metabolized
C[N+]12CCC(CC1)C(OC(=O)C(O)(c1ccccc1)c1ccccc1)C2.[Br-] (stereo not given) [CLIDINIUM BROMIDE] | – | Compound NOT metabolized | – | – | Compound NOT metabolized | Compound NOT metabolized | Compound NOT metabolized | Compound NOT metabolized | Compound NOT metabolized | Compound NOT metabolized | Compound NOT metabolized | Compound NOT metabolized | Compound NOT metabolized | Compound NOT metabolized | Compound NOT metabolized | Compound NOT metabolized | Compound NOT metabolized | – | Compound NOT metabolized
CN1CCN(C2=Nc3cc(Cl)ccc3Nc3ccccc32)CC1 [CLOZAPINE] | Compound NOT metabolized | Compound NOT metabolized | Compound NOT metabolized | Compound NOT metabolized | Compound NOT metabolized | Compound NOT metabolized | Compound NOT metabolized | Compound NOT metabolized | Compound NOT metabolized | Compound NOT metabolized | Compound NOT metabolized | Compound NOT metabolized | Compound NOT metabolized | Compound NOT metabolized | Compound NOT metabolized | Compound NOT metabolized | – | – | Compound NOT metabolized
